US20260223850A1, “SUBSTITUTED PYRROLIDONE COMPOUND, PREPARATION METHOD THEREFOR, COMPOSITION AND APPLICATION THEREOF” (QINGDAO KINGAGROOT CHEMICAL COMPOUND CO., LTD., priority 2023, published 2026)

How the values were obtained:
Format in all cases: in vivo
Huaidao (rice cultivar) = assay: Seedling stage sealing experiment for water-seeding (crop safety); conditions: 120 g a.i./ha, 15 days, fresh weight control rate; for Huaidao (rice cultivar) plant damage level: seedling stage sealing; for Huaidao (rice cultivar) plant damage level (growth control rate): spray, seedling stage sealing for water-seeding
Description: (§1) The activity level criteria for plant damage (i.e., growth control rate) are as follows: • Level 9: completely dead; • Level 8: growth control rate greater than or equal to 90% and less than 100%; • Level 7: growth control rate greater than or equal to 80% and less than 90%; • Level 6: growth control rate greater than or equal to 70% and less than 80%; • Level 5: growth control rate greater than or equal to 50% and less than 70%; • Level 4: growth control rate greater than or equal to 30% and less than 50%; • Level 3: growth control rate greater than or equal to 20% and less than 30%; • Level 2: growth control rate greater than or equal to 10% and less than 20%; • Level 1: growth control rate less than 10%; • Level 0: no effect.
(§2) The above growth control rates are fresh weight control rates.
(§3) Echinochloa phyllopogon, Digitaria sanguinalis, Huaidao (rice cultivar), etc. were broadcasted on the surface of nutrition bowls filled with soil and fully covered by soil. The foregoing well-prepared nutrition bowls were then placed in a cultivation box with water filled to a suitable height to keep the soil in the nutrition bowls moist. A test compound of the present invention was individually dissolved with acetone, then diluted into solution of a certain concentration using a certain amount of water, and sprayed using a spray tower. The plants were placed on a greenhouse seedbed and cultured for 15 days, and the experimental results were then collected. The compound was applied at 120, 60, 30 and 15 g a.i./ha in triplicate, and the results were averaged.

Echinochloa crusgalli = assay: Seedling stage sealing experiment for water-seeding; conditions: 120 g a.i./ha, 15 days, fresh weight control rate
Description: as §1, §2, §3

Echinochloa phyllopogon = assay: as above; conditions: 120 g a.i./ha, 15 days, fresh weight control rate
Description: as §1, §2, §3

[1] = spray, seedling stage sealing for water-seeding

SMILES | Huaidao (rice cultivar) plant damage level (Huaidao (rice cultivar)) | Echinochloa crusgalli activity level (growth control rate) (Echinochloa crusgalli; seedling stage sealing) | Echinochloa phyllopogon activity level (growth control rate) (Echinochloa phyllopogon; seedling stage sealing) | Huaidao (rice cultivar) plant damage level (growth control rate) (Huaidao (rice cultivar)) | Echinochloa crusgalli activity level (growth control rate) (Echinochloa crusgalli; [1]) | Echinochloa phyllopogon activity level (growth control rate) (Echinochloa phyllopogon; [1])
CN1C[C@H](c2cccc(Oc3ccc(F)cn3)c2)[C@@H](C(=O)Nc2cnn(C)c2Cl)C1=O [52′] | 0 | 9 | – | – | – | –
CN1C[C@H](c2cc(F)cc(C(F)(F)F)c2)[C@@H](C(=O)Nc2cnn(C)c2Cl)C1=O [67′] | 1 (Level 1: growth control rate less than 10%) | 9 | 8 (Level 8: growth control rate greater than or equal to 90% and less than 100%) | – | – | –
Cc1cc([C@H]2CN(C)C(=O)[C@@H]2C(=O)Nc2cnn(C)c2Cl)cc(C(F)(F)F)c1 [69′] | 1 (Level 1: growth control rate less than 10%) | 9 | 9 | – | – | –
CC(C)n1ncc(NC(=O)[C@H]2C(=O)N(C)C[C@@H]2c2cccc(C(F)(F)F)c2)c1Cl [97′] | 0 | 9 | 9 | – | – | –
CN1C[C@H](c2cccc(C(F)(F)F)c2)[C@@H](C(=O)Nc2cnn(C)c2F)C1=O [119′] | 0 | 9 | 9 | – | – | –
COCn1ncc(NC(=O)[C@H]2C(=O)N(C)C[C@@H]2c2cccc(C)c2)c1Cl [127′] | 0 | 9 | 8 (Level 8: growth control rate greater than or equal to 90% and less than 100%) | – | – | –
C#CCn1ncc(NC(=O)[C@H]2C(=O)N(C)C[C@@H]2c2cccc(C)c2)c1Cl [132′] | 0 | 7 (Level 7: growth control rate greater than or equal to 80% and less than 90%) | 7 (Level 7: growth control rate greater than or equal to 80% and less than 90%) | – | – | –
Cc1cccc([C@H]2CN(C)C(=O)[C@@H]2C(=O)Nc2cnn(C)c2C)c1 [134′] | 0 | 7 (Level 7: growth control rate greater than or equal to 80% and less than 90%) | 7 (Level 7: growth control rate greater than or equal to 80% and less than 90%) | – | – | –
C=C(C)c1cccc([C@H]2CN(C)C(=O)[C@@H]2C(=O)Nc2cnn(C)c2Cl)c1 [150′] | 0 | 6 (Level 6: growth control rate greater than or equal to 70% and less than 80%) | – | – | – | –
CN1C[C@H](c2cccc(C3CC3)c2)[C@@H](C(=O)Nc2cnn(C)c2Cl)C1=O [151′] | 0 | – | 9 | – | – | –
Cc1cc(C)cc([C@H]2CN(C)C(=O)[C@@H]2C(=O)Nc2cnn(C(C)(C)C)c2Cl)c1 [267′] | 0 | 6 (Level 6: growth control rate greater than or equal to 70% and less than 80%) | – | – | – | –
Cc1cc(C)cc([C@H]2CN(C)C(=O)[C@@H]2C(=O)Nc2cnn(C)c2)c1 [274′] | 0 | 7 (Level 7: growth control rate greater than or equal to 80% and less than 90%) | – | – | – | –
Cc1cc(C)cc([C@H]2CN(C)C(=O)[C@@H]2C(=O)Nc2cnn(C(C)C)c2C2CC2)c1 [278′] | 0 | 6 (Level 6: growth control rate greater than or equal to 70% and less than 80%) | – | – | – | –
Cc1cc(C)cc([C@H]2CN(C)C(=O)[C@@H]2C(=O)Nc2cnn(C)c2C2=CCCC2)c1 [280′] | 0 | 6 (Level 6: growth control rate greater than or equal to 70% and less than 80%) | – | – | – | –
CCc1cc(C)cc([C@H]2CN(C)C(=O)[C@@H]2C(=O)Nc2cnn(C)c2Cl)c1 [287′] | 0 | – | 9 | – | – | –
Cc1cc(C2CC2)cc([C@H]2CN(C)C(=O)[C@@H]2C(=O)Nc2cnn(C)c2Cl)c1 [289′] | 0 | – | 9 | – | – | –
Cc1cc(C)cc([C@H]2CN(C)C(=O)[C@@H]2C(=O)N(CC2CC2)c2cnn(C)c2Cl)c1 [367′] | 1 (Level 1: growth control rate less than 10%) | 9 | – | – | – | –

SMILES | Huaidao (rice cultivar) plant damage level (Huaidao (rice cultivar)) | Echinochloa crusgalli activity level (growth control rate) (Echinochloa crusgalli; seedling stage sealing) | Echinochloa phyllopogon activity level (growth control rate) (Echinochloa phyllopogon; seedling stage sealing) | Huaidao (rice cultivar) plant damage level (growth control rate) (Huaidao (rice cultivar)) | Echinochloa crusgalli activity level (growth control rate) (Echinochloa crusgalli; [1]) | Echinochloa phyllopogon activity level (growth control rate) (Echinochloa phyllopogon; [1])
Cc1cccc([C@H]2CN(C)C(=O)[C@@H]2C(=O)Nc2cnn(C(C)(C)C)c2Cl)c1 [384′] | 0 | 6 (Level 6: growth control rate greater than or equal to 70% and less than 80%) | – | – | – | –
Cc1cc(C)cc([C@H]2CN(C)C(=O)[C@@H]2C(=O)Nc2cnn(C)c2C(F)(F)C(F)(F)F)c1 [428′] | 0 | 6 (Level 6: growth control rate greater than or equal to 70% and less than 80%) | – | – | – | –
COc1cc([C@H]2CN(C)C(=O)[C@@H]2C(=O)Nc2cnn(C)c2Cl)cc(OC)c1OC [449′] | – | – | – | 0 | 6 (Level 6: growth control rate greater than or equal to 70% and less than 80%) | –
Cc1cccc([C@H]2CN(C)C(=O)[C@@H]2C(=O)Nc2cnn(C(=O)OC(C)(C)C)c2Cl)c1 [463′] | – | – | – | 0 | 6 (Level 6: growth control rate greater than or equal to 70% and less than 80%) | –
CN1C[C@H](c2cccc(C(F)(F)F)c2)[C@@H](C(=O)Nc2cnn(C)c2C(N)=O)C1=O [482′] | – | – | – | 0 | 9 | –
Cc1cc(C)cc([C@H]2CN(C)C(=O)[C@@H]2C(=O)N(C)c2cnn(C)c2Cl)c1 [490′] | – | – | – | 0 | 9 | –
CN1C[C@H](c2cc(Br)cc(C(F)F)c2)[C@@H](C(=O)Nc2cnn(C)c2C2CC2)C1=O [513′] | – | – | – | 0 | 9 | –
Cc1cccc([C@H]2CN(C)C(=O)[C@@H]2C(=O)Nc2cnn(C)c2[S+](C)[O-])c1 (stereo partly shown) [530′] | – | – | – | 0 | 9 | –
Cc1cc(C)cc([C@H]2CN(C)C(=O)[C@@H]2C(=O)Nc2cnn(C)c2-c2cscn2)c1 [551′] | – | – | – | 0 | 9 | –
COc1cc(OC)cc(C2CN(C)C(=O)C2C(=O)Nc2cnn(C)c2Cl)c1 (stereo not shown) [Compound 302] | – | 6 (Level 6: growth control rate greater than or equal to 70% and less than 80%) | 5 (Level 5: growth control rate greater than or equal to 50% and less than 70%) | – | – | –
CSc1c(C(F)(F)F)ccc(C2CN(C)C(=O)C2C(=O)Nc2cnn(C)c2Cl)c1Cl (stereo not shown) [Compound 330] | – | 6 (Level 6: growth control rate greater than or equal to 70% and less than 80%) | 5 (Level 5: growth control rate greater than or equal to 50% and less than 70%) | – | – | –
CN1CC(c2csc3ccccc23)C(C(=O)Nc2cnn(C)c2Cl)C1=O (stereo not shown) [Compound 359] | 0 | – | 7 (Level 7: growth control rate greater than or equal to 80% and less than 90%) | – | – | –
CN1CC(c2cccc(C(F)(F)F)c2)C(C(=O)Nc2cnn(C)c2CF)C1=O (stereo not shown) [Compound 477] | – | – | – | 0 | 9 | –
Cc1ccc(C2CN(C)C(=O)C2C(=O)Nc2cnn(C)c2C(F)(F)F)cc1C (stereo not shown) [Compound 488] | – | – | – | – | 9 | 9
Cc1cc(C)cc(C2CN(C)C(=O)C2C(=O)Nc2cnn(C)c2N(C)C)c1 (stereo not shown) [Compound 499] | – | – | – | 0 | 8 (Level 8: growth control rate greater than or equal to 90% and less than 100%) | –
CN1CC(c2cc(F)cc(C(F)(F)F)c2)C(C(=O)Nc2cnn(C)c2C(F)(F)F)C1=O (stereo not shown) [Compound 508] | – | – | – | – | 9 | 9
